Test results published in patent publication US8895585B2, “Nicotinamide derivative or salt thereof” (FUJIFILM Corporation, priority 2010, dated 2014).

Experiments:
THP-1 cells = experiment: TNFα generation assay; assay type: cell-based, human; details: Homo sapiens, THP-1, THP-1 cells; Table 22; read-out: IC50 in TNFα generation assay
Outline: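 THP-1 cells differentiated to macrophage-like cells with 10 ng/ml IFN-γ for 2 days, preincubated with compound 30 min at room temperature, then cultured 7 h on plates coated with human IgG (10 μg/ml). Secreted TNFα measured by ELISA or AlphaLISA.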

[1] = molecular target: T1, glutathione S-transferase (GST)-fused full-length human Syk protein (Homo sapiens, UniProt P43405); experiment: Syk enzyme assay; assay type: biochemical; details: Syk enzyme assay, Test Example 1; read-out: IC50 of Syk-inhibitory activity
T1 construct: (GST)-fused full-length human Syk protein; GST (glutathione S-transferase); purchased Carna Biosciences
Outline: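 GST-tagged full-length human Syk (baculovirus) preincubated with compound 15 min at room temperature (pH 7.0, 10 mM MgCl2), then reacted 40 min with 0.4 μM biotinylated peptide substrate and 27 μM ATP (final). Phosphorylation read by HTRF (615/665 nm) after EDTA stop; IC50 reported.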

CCC[C@@H](Nc1nc(Nc2ccnc(-c3cccc(OC)c3)c2)c(C(N)=O)cc1F)[C@H](C)N [Example 006-334, 6-(((2S,3R)-2-aminohexan-3-yl)amino)-5-fluoro-2-((2-(3-methoxyphenyl)pyridin-4-yl)amino)nicotinamide]
IC50 (THP-1 cells): 65 to 130 nM
IC50 [1]: < 10 nM

CCC[C@@H](Nc1nc(Nc2ccnc(-c3ccc(OC)cc3)c2)c(C(N)=O)cc1F)[C@H](C)N [Example 006-335, 6-(((2S,3R)-2-aminohexan-3-yl)amino)-5-fluoro-2-((2-(4-methoxyphenyl)pyridin-4-yl)amino)nicotinamide]
IC50 (THP-1 cells): 130 to 200 nM
IC50 [1]: < 10 nM

CCC[C@@H](Nc1nc(Nc2ccnc(-c3ccc(OC)cc3F)c2)c(C(N)=O)cc1F)[C@H](C)N [Example 006-336, 6-(((2S,3R)-2-aminohexan-3-yl)amino)-5-fluoro-2-((2-(2-fluoro-4-methoxyphenyl)pyridin-4-yl)amino)nicotinamide]
IC50 (THP-1 cells): 130 to 200 nM
IC50 [1]: < 10 nM

CCCC[C@H](CN)Nc1nc(Nc2ccc3c(cnn3CCOC)c2)c(C(N)=O)cc1F [Example 006-338, (R)-6-((1-aminohexan-2-yl)amino)-5-fluoro-2-((1-(2-methoxyethyl)-1H-indazol-5-yl)amino)nicotinamide]
IC50 (THP-1 cells): 65 to 130 nM
IC50 [1]: 10 to 50 nM

COCCn1ncc2cc(Nc3nc(N[C@H](CC4CC4)[C@H](C)N)c(F)cc3C(N)=O)ccc21 [Example 006-343, 6-(((2R,3S)-3-amino-1-cyclopropylbutan-2-yl)amino)-5-fluoro-2-((1-(2-methoxyethyl)-1H-indazol-5-yl)amino)nicotinamide]
IC50 (THP-1 cells): 65 to 130 nM
IC50 [1]: < 10 nM

C[C@H](N)[C@@H](CC1CC1)Nc1nc(Nc2ccc3c(cnn3C)c2)c(C(N)=O)cc1F [Example 006-345, 6-(((2R,3S)-3-amino-1-cyclopropylbutan-2-yl)amino)-5-fluoro-2-((1-methyl-1H-indazol-5-yl)amino)nicotinamide]
IC50 (THP-1 cells): 65 to 130 nM
IC50 [1]: < 10 nM

COc1ccc2cc(Nc3nc(N[C@H](CC4CC4)[C@H](C)N)c(F)cc3C(N)=O)cnc2c1 [Example 006-346, 6-(((2R,3S)-3-amino-1-cyclopropylbutan-2-yl)amino)-5-fluoro-2-((7-methoxyquinolin-3-yl)amino)nicotinamide]
IC50 (THP-1 cells): 130 to 200 nM
IC50 [1]: < 10 nM

C[C@H](N)[C@@H](CC1CC1)Nc1nc(Nc2ccc3scnc3c2)c(C(N)=O)cc1F [Example 006-348, 6-(((2R,3S)-3-amino-1-cyclopropylbutan-2-yl)amino)-2-(benzo[d]thiazol-5-ylamino)-5-fluoronicotinamide]
IC50 (THP-1 cells): 65 to 130 nM
IC50 [1]: 10 to 50 nM

C[C@H](N)[C@@H](CC1CC1)Nc1nc(Nc2cncc(C3CC3)c2)c(C(N)=O)cc1F [Example 006-350, 6-(((2R,3S)-3-amino-1-cyclopropylbutan-2-yl)amino)-2-((5-cyclopropylpyridin-3-yl)amino)-5-fluoronicotinamide]
IC50 (THP-1 cells): 65 to 130 nM
IC50 [1]: < 10 nM

C[C@H](N)[C@@H](CC1CC1)Nc1nc(Nc2cncc(-c3ccccc3)c2)c(C(N)=O)cc1F [Example 006-351, 6-(((2R,3S)-3-amino-1-cyclopropylbutan-2-yl)amino)-5-fluoro-2-((5-phenylpyridin-3-yl)amino)nicotinamide]
IC50 (THP-1 cells): 65 to 130 nM
IC50 [1]: < 10 nM

C[C@H](N)[C@@H](CC1CC1)Nc1nc(Nc2cncc(-n3nccn3)c2)c(C(N)=O)cc1F [Example 006-352, 2-((5-(2H-1,2,3-triazol-2-yl)pyridin-3-yl)amino)-6-(((2R,3S)-3-amino-1-cyclopropylbutan-2-yl)amino)-5-fluoronicotinamide]
IC50 (THP-1 cells): < 65 nM
IC50 [1]: < 10 nM

C[C@H](N)[C@@H](CC1CC1)Nc1nc(Nc2ccnc(-n3cncn3)c2)c(C(N)=O)cc1F [Example 006-353, 2-((2-(1H-1,2,4-triazol-1-yl)pyridin-4-yl)amino)-6-(((2R,3S)-3-amino-1-cyclopropylbutan-2-yl)amino)-5-fluoronicotinamide]
IC50 (THP-1 cells): < 65 nM
IC50 [1]: < 10 nM

C[C@H](N)[C@@H](CC1CC1)Nc1nc(Nc2cncc3ccccc23)c(C(N)=O)cc1F [Example 006-354, 6-(((2R,3S)-3-amino-1-cyclopropylbutan-2-yl)amino)-5-fluoro-2-((isoquinolin-4-yl)amino)nicotinamide]
IC50 (THP-1 cells): 65 to 130 nM
IC50 [1]: < 10 nM

COc1cc(Nc2nc(N[C@H](CC3CC3)[C@H](C)N)c(F)cc2C(N)=O)ccn1 [Example 006-355, 6-(((2R,3S)-3-amino-1-cyclopropylbutan-2-yl)amino)-5-fluoro-2-((2-methoxypyridin-4-yl)amino)nicotinamide]
IC50 (THP-1 cells): 65 to 130 nM
IC50 [1]: < 10 nM

C[C@H](N)[C@@H](CC1CC1)Nc1nc(Nc2cccc3c2cnn3C)c(C(N)=O)cc1F [Example 006-356, 6-(((2R,3S)-3-amino-1-cyclopropylbutan-2-yl)amino)-5-fluoro-2-((1-methyl-1H-indazol-4-yl)amino)nicotinamide]
IC50 (THP-1 cells): < 65 nM
IC50 [1]: < 10 nM

C[C@H](N)[C@@H](CC1CC1)Nc1nc(Nc2cncc(F)c2)c(C(N)=O)cc1F [Example 006-357, 6-(((2R,3S)-3-amino-1-cyclopropylbutan-2-yl)amino)-5-fluoro-2-((5-fluoropyridin-3-yl)amino)nicotinamide]
IC50 (THP-1 cells): 65 to 130 nM
IC50 [1]: 10 to 50 nM

CC[C@@H](Nc1nc(Nc2ccc3cnn(C)c3c2)c(C(N)=O)cc1F)[C@H](C)N [Example 006-358, 6-(((2S,3R)-2-aminopentan-3-yl)amino)-5-fluoro-2-((1-methyl-1H-indazol-6-yl)amino)nicotinamide]
IC50 (THP-1 cells): < 65 nM
IC50 [1]: < 10 nM

CCC[C@@H](Nc1nc(Nc2ccc3cnn(C)c3c2)c(C(N)=O)cc1F)[C@H](C)N [Example 006-359, 6-(((2S,3R)-2-aminohexan-3-yl)amino)-5-fluoro-2-((1-methyl-1H-indazol-6-yl)amino)nicotinamide]
IC50 (THP-1 cells): < 65 nM
IC50 [1]: < 10 nM

CCCC[C@H](CN)Nc1nc(Nc2ccc3cnn(C)c3c2)c(C(N)=O)cc1F [Example 006-360, (R)-6-((1-aminohexan-2-yl)amino)-5-fluoro-2-((1-methyl-1H-indazol-6-yl)amino)nicotinamide]
IC50 (THP-1 cells): 65 to 130 nM
IC50 [1]: < 10 nM

C[C@H](N)[C@@H](CC1CC1)Nc1nc(Nc2ccc3cnn(C)c3c2)c(C(N)=O)cc1F [Example 006-361, 6-(((2R,3S)-3-amino-1-cyclopropylbutan-2-yl)amino)-5-fluoro-2-((1-methyl-1H-indazol-6-yl)amino)nicotinamide]
IC50 (THP-1 cells): 65 to 130 nM
IC50 [1]: < 10 nM

CC[C@H](N)[C@@H](C)Nc1nc(Nc2ccc3c(cnn3CC)c2)c(C(N)=O)cc1F [Example 006-362, 6-(((2R,3S)-3-aminopentan-2-yl)amino)-2-((1-ethyl-1H-indazol-5-yl)amino)-5-fluoronicotinamide]
IC50 (THP-1 cells): 130 to 200 nM
IC50 [1]: < 10 nM

CC[C@H](N)[C@@H](C)Nc1nc(Nc2ccc3c(cnn3CCOC)c2)c(C(N)=O)cc1F [Example 006-363, 6-(((2R,3S)-3-aminopentan-2-yl)amino)-5-fluoro-2-((1-(2-methoxyethyl)-1H-indazol-5-yl)amino)nicotinamide]
IC50 (THP-1 cells): 65 to 130 nM
IC50 [1]: < 10 nM

CC[C@H](N)[C@@H](CC)Nc1nc(Nc2ccc3c(cnn3C)c2)c(C(N)=O)cc1F [Example 006-364, 6-(((3R,4S)-4-aminohexan-3-yl)amino)-5-fluoro-2-((1-methyl-1H-indazol-5-yl)amino)nicotinamide]
IC50 (THP-1 cells): 65 to 130 nM
IC50 [1]: < 10 nM

CC[C@H](N)[C@@H](CC)Nc1nc(Nc2ccc3c(cnn3CC)c2)c(C(N)=O)cc1F [Example 006-365, 6-(((3R,4S)-4-aminohexan-3-yl)amino)-2-((1-ethyl-1H-indazol-5-yl)amino)-5-fluoronicotinamide]
IC50 (THP-1 cells): 65 to 130 nM
IC50 [1]: < 10 nM

C[C@H](N)[C@H](Nc1nc(Nc2ccc3c(cnn3C)c2)c(C(N)=O)cc1F)C1CC1 [Example 006-369, 6-(((1R,2S)-2-amino-1-cyclopropylpropyl)amino)-5-fluoro-2-((1-methyl-1H-indazol-5-yl)amino)nicotinamide]
IC50 (THP-1 cells): < 65 nM
IC50 [1]: < 10 nM

C[C@H](N)[C@H](Nc1nc(Nc2ccc3cnn(C)c3c2)c(C(N)=O)cc1F)C1CC1 [Example 006-370, 6-(((1R,2S)-2-amino-1-cyclopropylpropyl)amino)-5-fluoro-2-((1-methyl-1H-indazol-6-yl)amino)nicotinamide]
IC50 (THP-1 cells): < 65 nM
IC50 [1]: < 10 nM

C[C@H](N)[C@H](Nc1nc(Nc2cncc(C3CC3)c2)c(C(N)=O)cc1F)C1CC1 [Example 006-371, 6-(((1R,2S)-2-amino-1-cyclopropylpropyl)amino)-2-((5-cyclopropylpyridin-3-yl)amino)-5-fluoronicotinamide]
IC50 (THP-1 cells): 65 to 130 nM
IC50 [1]: < 10 nM

C[C@H](N)[C@H](Nc1nc(Nc2cncc(F)c2)c(C(N)=O)cc1F)C1CC1 [Example 006-372, 6-(((1R,2S)-2-amino-1-cyclopropylpropyl)amino)-5-fluoro-2-((5-fluoropyridin-3-yl)amino)nicotinamide]
IC50 (THP-1 cells): 65 to 130 nM
IC50 [1]: 10 to 50 nM

C[C@H](N)[C@H](Nc1nc(Nc2cncc(-n3cccn3)c2)c(C(N)=O)cc1F)C1CC1 [Example 006-373, 2-((5-(1H-pyrazol-1-yl)pyridin-3-yl)amino)-6-(((1R,2S)-2-amino-1-cyclopropylpropyl)amino)-5-fluoronicotinamide]
IC50 (THP-1 cells): < 65 nM
IC50 [1]: < 10 nM
